Patent US8008260B2, “Methods of protecting against apoptosis using lipopeptides” (Cleveland Clinic Foundation, priority 2005, dated 2011)
Peptide text beside a SMILES is read from it. * marks the point of attachment. Propyl(2R-PamO,3-PamO) = CCCCCCCCCCCCCCCC(=O)OC[C@H](C*)OC(=O)CCCCCCCCCCCCCCC

Tests used:
[1] = biological target: T1, TLR2/TLR6 heterodimer (Homo sapiens, UniProt O60603+Q9Y2C9); assay: NF-κB-dependent reporter activity in 293 cells expressing the TLR2/TLR6 heterodimer; format: cell-based; design: NF-κB activation: scale not given here
T1 construct: expressed in transfected cells; host or cells: 293 cells
Protocol: NF-κB-dependent reporter activity was measured in 293 cells that expressed the TLR2/YLR6 heterodimer. […] None of the non-palmitoylated corresponding peptides activated the NF-κB reporter (FIG. 18B). The peptide component of CBLB617 has a (−4) charge, which should prevent it from interacting with negatively charged cell surface markers. […] Table 5 summarizes the in vitro activity and solubility of all the compounds.

[2] = test system: ICR mice; assay: Radioprotection against total body gamma irradiation (TBI), 30-day survival; format: in vivo
From the text: CBLB601, a R-Pam2-lipopeptide with the peptide moiety consisting of C-SKKKK (SEQ ID NO: 8), was selected for more detailed characterization as a radioprotector based upon its ability to activate NF-κB and preliminary in vivo data on radioprotection in NIH-SWISS mice (see Example 2). The objectives of this study were to determine the optimal dose, route of administration, and time of administration of CBLB601 to serve as a protector. ICR female mice of 10-15 weeks of age were used, with 10-15 animals per group or condition.
The optimal intraperitoneal administration schedule of CBLB601 was determined by injecting the compound at different times prior to irradiation. […] Therefore, all of the optimization experiments were performed with 10 Gy of total body irradiation (TBI). A dose of 3 μg of BCLB601/mouse (1/10 NOAEL) was chosen as the starting dose. Thus, 3 μg of CBLB601 was injected i.p. into ICR mice at 0.5 h, 1 h, 6 h, and 24 h or 1 h, 24 h, 48 h, 72 h, 96 h prior to 10 Gy of TBI (as described in Example 1). […] Injection of CBLB601 24 hrs before irradiation clearly yielded the best radioprotection (90-100% 30-day survival). When the compound was administered 48 hrs before irradiation, the radioprotection was ˜30%. Administration of CBLB601 at 1 hr prior to irradiation produced inconsistent results ranging from 80% protection in one experiment (FIG. 5B) to almost no protection (20%) in another experiment (FIG. 5A).
To determine the optimal radioprotective dose of CBLB601, the timing of injection and level of irradiation were kept constant, while the dose of CBLB601 was varied. ICR mice were injected i.p. with 1, 3, 10, 20, or 30 μg of CBLB601/mouse or 0.1, 0.3, 1, 3, 10, or […] 24 hrs prior to irradiation (10 Gy of TBI), and their survival was monitored for 30 days. The best protective dose was 3 μg/mouse, which supported a survival of 100% (FIGS. 6 A and B). […] Thus, the optimal protective dose of CBLB601 was determined to be 3 μg/mouse.
To determine the level of radiation that was protected by CBLB601, radioprotectant-treated and control mice were exposed to increasing levels of TBI. Groups of ICR mice were injected i.p. with either 3 μg CBLB601/mouse or PBS, and then 24 h later they received 10, 11, 12, 13, 14, and 15 Gy doses of TBI. Survival was recorded over 30 days. […] All of the mice irradiated with 10-11 Gy of TBI died between days 12-14 post irradiation, which was typical for death due to hematopoietic failure. All of the mice that received 14-15 Gy of TBI died between days 7-9 post irradiation, which was typical for mortality due to radiation-induced intestinal damage. Mice that were irradiated with 12-13 Gy of TBI died at intermediate times, which was typical for a mixed etiology of radiation-induced mortality. […] To reach a statistically significant 10% difference between control and CBLB601-treated mice, experimental groups of at least 50 mice must be used. Although CBLB601 rescued 100% of mice from 10 Gy of TBI, its protection at 11 Gy of TBI was only 20%. […] This may be indicative of a combined toxicity of the drug and the irradiation.
CBLB601 was administered intramuscularly to determine the optimal route of administration of this compound (especially since this would be the preferred route of administration for humans). […] In another experiment, increasing doses of CBLB601 administered i.m. were tested against 10, 11, and 12 Gy doses of […] (FIG. 9). […] A summary of the dose-dependency of the radioprotection of […] administered i.p. or i.m. 24 h prior to 10 Gy of TBI is shown in FIG. 10.
The optimal schedule of intramuscular administration of CBLB601 was determined by varying the time between drug delivery and irradiation. ICR mice were injected i.m. with 3 μg of CBLB601/mouse 24 h, 6 h, 3 h, and 1 h prior to TBI and +1 h, +3 h after TBI (FIG. 12A), as well as 48 h, 36 h, 24 h, 12 h, and 6 h prior to TBI (FIG. 12B). […]

[3] = test system: mice; assay: Mitigation of radiation injury, injection 1 hr after TBI; format: in vivo
Protocol: The ability of CBLB612 to serve as a mitigator of lower dose radiation injury was also examined. For this, 50 μg of CBLB612/mouse was injected intramuscularly 1 hr after exposure to 8.5, 9, or 10 Gy of TBI.

[4] = Solubility of the lipopeptides
[5] = test system: C57B1/6J mice; assay: Survival after gamma irradiation with p53 inhibitor pretreatment; format: in vivo; details: 10 mg/kg i.p.
Protocol: To examine the role of p53 in radiation-induced death, mice were treated with the small molecule inhibitor of p53, pifithrin-alpha (PFTα) (Komarov et al., Science 285:1733-7, 1999) immediately prior to gamma irradiation. C57B1/6J mice (6-8 weeks old males were used here and below, if not indicated otherwise) were injected intraperitoneally with 10 mg/kg of PFTα and then irradiated using a Shepherd 4000 Ci ^137Cesium source at a dose rate of 4 Gy per minute.

T1 sequence (O60603 21-784): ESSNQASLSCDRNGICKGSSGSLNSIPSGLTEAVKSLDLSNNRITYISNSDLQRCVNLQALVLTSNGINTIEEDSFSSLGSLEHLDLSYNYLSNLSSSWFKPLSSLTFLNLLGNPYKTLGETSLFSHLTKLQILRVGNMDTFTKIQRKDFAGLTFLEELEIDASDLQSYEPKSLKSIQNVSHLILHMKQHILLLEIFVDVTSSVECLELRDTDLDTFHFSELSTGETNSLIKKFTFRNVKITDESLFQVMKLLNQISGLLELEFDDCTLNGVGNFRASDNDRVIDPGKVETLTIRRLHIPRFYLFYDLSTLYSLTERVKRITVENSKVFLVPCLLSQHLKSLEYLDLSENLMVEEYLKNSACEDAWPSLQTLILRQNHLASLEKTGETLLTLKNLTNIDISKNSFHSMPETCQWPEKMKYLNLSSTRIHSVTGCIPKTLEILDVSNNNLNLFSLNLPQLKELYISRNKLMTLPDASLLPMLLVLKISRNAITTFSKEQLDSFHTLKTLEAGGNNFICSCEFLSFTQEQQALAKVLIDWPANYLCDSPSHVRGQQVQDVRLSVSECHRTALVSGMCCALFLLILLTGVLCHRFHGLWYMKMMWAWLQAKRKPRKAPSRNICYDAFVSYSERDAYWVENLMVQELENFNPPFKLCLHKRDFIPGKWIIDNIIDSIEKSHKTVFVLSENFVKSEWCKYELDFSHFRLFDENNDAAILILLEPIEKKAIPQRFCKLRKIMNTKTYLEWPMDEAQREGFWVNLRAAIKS
T1 sequence (Q9Y2C9 32-796): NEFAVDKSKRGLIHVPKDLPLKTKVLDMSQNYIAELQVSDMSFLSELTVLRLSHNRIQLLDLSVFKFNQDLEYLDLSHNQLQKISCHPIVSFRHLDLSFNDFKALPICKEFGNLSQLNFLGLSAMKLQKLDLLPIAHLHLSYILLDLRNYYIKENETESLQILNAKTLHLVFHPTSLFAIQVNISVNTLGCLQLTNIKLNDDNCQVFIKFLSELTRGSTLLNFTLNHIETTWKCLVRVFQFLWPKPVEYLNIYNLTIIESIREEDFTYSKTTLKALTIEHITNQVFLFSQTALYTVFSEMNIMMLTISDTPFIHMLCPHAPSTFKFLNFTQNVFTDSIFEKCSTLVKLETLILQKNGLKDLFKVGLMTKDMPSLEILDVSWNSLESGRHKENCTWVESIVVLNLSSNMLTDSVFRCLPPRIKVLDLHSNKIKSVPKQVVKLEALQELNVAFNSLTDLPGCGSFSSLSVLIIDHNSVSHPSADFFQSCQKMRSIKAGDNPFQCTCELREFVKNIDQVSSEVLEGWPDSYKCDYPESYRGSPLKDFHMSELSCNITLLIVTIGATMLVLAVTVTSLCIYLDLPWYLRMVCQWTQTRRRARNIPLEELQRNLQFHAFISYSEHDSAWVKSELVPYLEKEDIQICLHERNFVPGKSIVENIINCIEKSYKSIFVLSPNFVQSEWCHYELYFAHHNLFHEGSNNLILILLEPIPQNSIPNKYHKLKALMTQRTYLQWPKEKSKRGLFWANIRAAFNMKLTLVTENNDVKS

SMILES	activation of the NF-κB reporter (in words, compared with CBLB601) ([1]; 293 cells expressing TLR2/TLR6, various doses)	NF-κB activation ([1]; in vitro activity, 293 cells expressing TLR2/TLR6)	toxicity in combination with radiation ([2]; i.m. 24 hours before 10 Gy TBI)	rank of radioprotective potency ([2]; i.m. 24 hrs before 10 Gy TBI)	radioprotector quality compared with CBLB601 ([2]; mouse, in vivo)	therapeutic index ([2]; summary of Example 5)	survival rate versus PBS ([3]; 50 μg/mouse i.m. 1 hr after 8.5, 9 or 10 Gy TBI)	mice surviving to 27 days ([3]; 50 μg/mouse i.m. 1 hr after 8.5 Gy TBI) [%]	mice surviving to 27 days ([3]; 50 μg/mouse i.m. 1 hr after 9 Gy TBI) [%]	Solubility [4]	survival of irradiated mice ([5]; fractioned cumulative 12.5 Gy (5×2.5 Gy))	survival of irradiated mice ([5]; single 9 Gy dose)	survival of irradiated mice ([5]; single 12.5 Gy)	survival of irradiated mice ([5]; single 25 Gy)
CCCCCCCCCCCCCCCC(=O)OC[C@H](CSC[C@H](N)C(=O)N[C@H](C(=O)N[C@@H](CCC(N)=O)C(=O)NCC(=O)N[C@@H](CCC(=O)O)C(=O)N[C@@H](CCC(=O)O)C(=O)N[C@@H](CO)C(=O)N[C@@H](CC(N)=O)C(=O)N[C@@H](CC(=O)O)C(=O)N[C@@H](CCCCN)C(=O)O)C(C)C)OC(=O)CCCCCCCCCCCCCCC [CBLB612] (H-C(Propyl(2R-PamO,3-PamO))VQGEESNDK-OH)	better activators than CBLB601	200	no toxicity in combination with radiation	CBLB612>CBLB614>CBLB615	significantly better radioprotectors than CBLB601	~20	increased the survival rate at every dose of radiation	90	70	Excellent	–	–	–	–
Cc1ccc(C(=O)Cn2c3c(sc2=N)CCCC3)cc1 [PFTα, pifithrin-alpha]	–	–	–	–	–	–	–	–	–	–	protected mice	protected mice	no effect on the survival	no effect on the survival
